Reference: publication PMC5267425, “Identification of small molecule modulators of HIV-1 Tat and Rev protein accumulation” (Retrovirology, 2017)
“And” between values parts separate entries of the source, which are not always exact repeats. Identical values can stand only once.

System: alternative splicing of host transcripts in HeLa rtTA HIV∆Mls cells
Assay: RT-PCR of host alternative splicing events (PSI), capillary electrophoresis
Format: cell-based
Set-up: PSI ZNF827_1 / PSI RAN_1 / PSI SEC24B_1 / PSI SMN2_1 / PSI TRIM37_1 / PSI RPS24_1 / PSI PDCL_1 / PSI SMN2_2 / PSI SETD5_1 / PSI RAI14_1 / PSI TPM1_1 / PSI SPAG9_1 / PSI POLDIP3_1 / PSI SRPK2_1 / PSI POMT1_1: concentration or dose not given beside the values
Conditions: for DPSI TPM1_1: P Value 0.330
Description: To assess the effect of compounds on expression/alternative splicing of cellular RNA, two approaches were used. For both, total RNA was prepared from DMSO or compound-treated cells. In the first assay, samples were assayed by medium throughput RT-PCR to determine the inclusion levels of alternatively spliced exons and splice sites located in 73 selected events. 73 primer sets containing a fluorescently (5-FAM) labeled primer for each, were used in RT-PCR. PCR products generated were denatured in formamide and quantified using ABI Prism capillary sequencer (Life Technologies). The fragment analysis was performed on the PeakScanner software (Life Technologies) in batch mode and automated using custom scripts written in Python. The inclusion level of each exon was calculated as the amount of transcripts carrying the alternative exon relative to the total amount of all transcripts detected in the PCR reaction and results are summarized for compound-treatment in comparison to DMSO treatment. In the second assay, extracted RNA was processed using the Illumina TruSeq RNA Sample Preparation Kit (Illumina) according to the manufacturer’s instructions. The cDNA library generated was validated (passed quality control on a Bioanalyzer 1000 DNA chip (Agilent)), normalized and pooled for cluster generation. cDNA libraries were sequenced on the Illumina HiSeq 2500 (paired-end, 125 bp) with version 4 chemistry following manufacturer’s protocols. The full human genome and transcriptomic sequences were downloaded from the UCSC Genome Browser (genome.ucsc.edu) database and Ensembl (www.ensembl.org), respectively, as described by Irimia et al.. Exon annotations and genomic coordinates for alternative splicing (AS) analysis were derived from tables downloaded from the UCSC Genome Browser database. To determine gene expression (GE) or alternative splicing (AS) changes in an unbiased way, the effective number of unique mappable positions in each transcript (i.e. the effective length) was determined by aligning sequences with unique transcriptomic alignment to the human genome using Bowtie. Reads with one unique genomic alignment were then aligned against the canonical transcriptome and, for each transcript, the number of reads with one unique transcriptomic alignment were counted. The expression level of genes was quantified as corrected ‘reads per kilobase of exon model per million mapped reads’ (cRPKM), a widely used metric to estimate gene expression levels. The expression cutoff was 0.5 cRPKM, corresponding to the transcript of the gene being present if there were ≥10 reads that mapped uniquely to a single genomic locus. Approximately 19,847 Ensembl annotated protein-coding genes were compared to create a gene list of differentially expressed genes. Genes were considered differentially expressed if fold changes in cRPKM was ≥2 in compound-treated versus DMSO-treated samples.

[1] = of 70 AS events, 5193892 vs DMSO, HeLa rtTA-HIV-DMls cells

**Q.** `COc1ccc(C=NNC(=O)c2ccccc2O)cc1O` [Compound 892, 2-hydroxy-N′-(3-hydroxy-4-methoxybenzylidene)benzohydrazide] was tested. Which “PSI NUMB_2” value (chr14:72815742-72815885, HeLa rtTA-HIV-DMls cells, replicates 25, 26, 27) did it give?
**A.** 26.00

**Q.** And the “DPSI NUMB_2” value (chr14:72815742-72815885, mean PSI 5193892 minus DMSO, n=3, P Value 0.004)?
**A.** 8.67%

**Q.** What about the “PSI NUMB_2” value (chr14:72820542-72820835, HeLa rtTA-HIV-DMls cells, replicates 25, 26, 27) of the same compound?
**A.** 82.00 and 96.00 and 95.00

**Q.** What about the “DPSI NUMB_2” value (chr14:72820542-72820835, mean PSI 5193892 minus DMSO, n=3, P Value 0.525) of the same compound?
**A.** 4.67%

**Q.** What about the “PSI MARK3_1” value (chr14:103034592-103034618, HeLa rtTA-HIV-DMls cells, replicates 25, 26, 27) of the same compound?
**A.** 20.00 and 13.00 and 16.00

**Q.** What about the “DPSI MARK3_1” value (chr14:103034592-103034618, mean PSI 5193892 minus DMSO, n=3, P Value 0.734) of the same compound?
**A.** 1.00%

**Q.** And the “PSI MARK3_1” value (chr14:103036246-103036290, HeLa rtTA-HIV-DMls cells, replicates 25, 26, 27)?
**A.** 11.00 (2×) and 9.00

**Q.** And the “PSI TPM1_1” value (chr15:61140450-61140525, HeLa rtTA-HIV-DMls cells, replicates 25, 26, 27)?
**A.** 84.00 and 73.00 and 67.00

**Q.** And the “DPSI TPM1_1” value (chr15:61140450-61140525, mean PSI 5193892 minus DMSO, n=3)?
**A.** -6.67%

**Q.** And the “PSI TPM1_1” value (chr15:61140965-61141040, HeLa rtTA-HIV-DMls cells, replicates 25, 26, 27)?
**A.** 16.00 and 27.00 and 33.00

**Q.** What about the “DPSI TPM1_1” value (chr15:61140965-61141040, mean PSI 5193892 minus DMSO, n=3) of the same compound?
**A.** 6.67%

**Q.** What about the “PSI CA12_1” value (chr15:61406400-61406485, HeLa rtTA-HIV-DMls cells, replicates 25, 26, 27) of the same compound?
**A.** 96.00 and 100.00 and 95.00

**Q.** And the “DPSI CA12_1” value (chr15:61406400-61406485, mean PSI 5193892 minus DMSO, n=3, P Value 0.851)?
**A.** 0.33%

**Q.** What about the “PSI CA12_1” value (chr15:61407349-61407382, HeLa rtTA-HIV-DMls cells, replicates 25, 26, 27) of the same compound?
**A.** 15.00 and 7.00 and 4.00

**Q.** And the “PSI MRIP_1” value (chr17:17024646-17024708, HeLa rtTA-HIV-DMls cells, replicates 25, 26, 27)?
**A.** 32.00 and 31.00 (2×)

**Q.** What about the “DPSI MRIP_1” value (chr17:17024646-17024708, mean PSI 5193892 minus DMSO, n=3, P Value 0.101) of the same compound?
**A.** 1.00%

**Q.** And the “PSI ATP6V0A1_1” value (chr17:37919833-37920004, HeLa rtTA-HIV-DMls cells, replicates 25, 26, 27)?
**A.** 81.00 and 86.00 and 77.00

**Q.** What about the “DPSI ATP6V0A1_1” value (chr17:37919833-37920004, mean PSI 5193892 minus DMSO, n=3, P Value 0.331) of the same compound?
**A.** 3.33%

**Q.** And the “PSI SPAG9_1” value (chr17:46408223-46408261, HeLa rtTA-HIV-DMls cells, replicates 25, 26, 27)?
**A.** 25.00 and 17.00 and 16.00

**Q.** What about the “PSI TRIM37_1” value (chr17:54433741-54433857, HeLa rtTA-HIV-DMls cells, replicates 25, 26, 27) of the same compound?
**A.** 69.00 and 71.00 and 68.00

**Q.** What about the “DPSI TRIM37_1” value (chr17:54433741-54433857, mean PSI 5193892 minus DMSO, n=3, P Value 0.063) of the same compound?
**A.** -4.33%

**Q.** And the “PSI FAM104A_1” value (chr17:68720412-68720474, HeLa rtTA-HIV-DMls cells, replicates 25, 26, 27)?
**A.** 15.00 and 20.00 and 18.00

**Q.** What about the “DPSI FAM104A_1” value (chr17:68720412-68720474, mean PSI 5193892 minus DMSO, n=3, P Value 0.523) of the same compound?
**A.** -2.33%

**Q.** And the “PSI EXOC7_1” value (chr17:71598005-71598035, HeLa rtTA-HIV-DMls cells, replicates 25, 26, 27)?
**A.** 35.00 and 23.00 and 25.00

**Q.** What about the “DPSI EXOC7_1” value (chr17:71598005-71598035, mean PSI 5193892 minus DMSO, n=3, P Value 0.709) of the same compound?
**A.** 2.67%

**Q.** What about the “PSI EXOC7_1” value (chr17:71598819-71598911, HeLa rtTA-HIV-DMls cells, replicates 25, 26, 27) of the same compound?
**A.** 27.00

**Q.** What about the “DPSI EXOC7_1” value (chr17:71598819-71598911, mean PSI 5193892 minus DMSO, n=3, P Value 0.003) of the same compound?
**A.** 5.67%

**Q.** And the “PSI MBD1_1” value (chr18:46054554-46054721, HeLa rtTA-HIV-DMls cells, replicates 25, 26, 27)?
**A.** 28.00 and 15.00 and 9.00

**Q.** What about the “PSI APP_1” value (chr21:26291546-26291602, HeLa rtTA-HIV-DMls cells, replicates 25, 26, 27) of the same compound?
**A.** 30.00 and 32.00 and 34.00

**Q.** What about the “DPSI APP_1” value (chr21:26291546-26291602, mean PSI 5193892 minus DMSO, n=3, P Value 0.279) of the same compound?
**A.** 1.67%

**Q.** What about the “PSI APP_1” value (chr21:26294201-26294368, HeLa rtTA-HIV-DMls cells, replicates 25, 26, 27) of the same compound?
**A.** 71.00 and 77.00 and 81.00

**Q.** And the “PSI POLDIP3_1” value (chr22:41327919-41328006, HeLa rtTA-HIV-DMls cells, replicates 25, 26, 27)?
**A.** 68.00 and 67.00 and 64.00

**Q.** What about the “DPSI POLDIP3_1” value (chr22:41327919-41328006, mean PSI 5193892 minus DMSO, n=3, P Value 0.421) of the same compound?
**A.** 2.33%

**Q.** And the “AS events with DPSI ≤ -10%” value [1]?
**A.** 7

**Q.** What about the “AS events with DPSI ≥ 10%” value [1] of the same compound?
**A.** 2

**Q.** What about the “AS events with P ≤ 0.05” value [1] of the same compound?
**A.** 18
